According to patent US8853196B2, “Aminochromane, aminothiochromane and amino-1,2,3,4-tetrahydroquinoline derivatives, pharmaceutical compositions containing them, and their use in therapy” (AbbVie Deutschland GmbH & Co. KG, priority 2011, dated 2014):
Where a name gives a salt, the structure may show the parent alone.

Biological target: T1, human GlyT1c transporter (Homo sapiens, UniProt P48067)
T1 construct: expressed in transfected cells; host or cells: CHO cells (recombinant; membranes)
T1 sequence (P48067 1-706): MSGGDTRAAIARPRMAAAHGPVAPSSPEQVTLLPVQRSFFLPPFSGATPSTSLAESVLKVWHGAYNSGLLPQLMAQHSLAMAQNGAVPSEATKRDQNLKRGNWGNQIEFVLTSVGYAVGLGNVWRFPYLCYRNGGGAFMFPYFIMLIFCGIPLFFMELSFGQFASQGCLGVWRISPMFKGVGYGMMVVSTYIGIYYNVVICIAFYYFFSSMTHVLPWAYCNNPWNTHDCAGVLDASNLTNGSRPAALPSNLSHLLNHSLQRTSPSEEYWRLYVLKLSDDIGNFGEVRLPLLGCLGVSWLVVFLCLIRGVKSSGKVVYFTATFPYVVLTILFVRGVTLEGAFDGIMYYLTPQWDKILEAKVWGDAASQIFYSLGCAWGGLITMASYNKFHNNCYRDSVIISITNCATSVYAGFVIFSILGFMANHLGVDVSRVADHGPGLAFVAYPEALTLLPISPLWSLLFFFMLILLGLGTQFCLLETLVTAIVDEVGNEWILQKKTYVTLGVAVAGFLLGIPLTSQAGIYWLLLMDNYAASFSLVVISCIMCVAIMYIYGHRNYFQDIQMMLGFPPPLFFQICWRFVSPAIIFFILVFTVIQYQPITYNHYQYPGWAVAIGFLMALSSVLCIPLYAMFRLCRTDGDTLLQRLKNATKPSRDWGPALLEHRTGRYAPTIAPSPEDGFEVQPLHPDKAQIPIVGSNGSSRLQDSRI
Test: Radioligand binding assay using recombinant CHO cell membranes expressing human GlyT1
Conditions: values given as upper bounds, read-out: radioligand binding Kiapp
Description: 2. Radioligand Binding Assays Using Recombinant CHO Cell Membranes Expressing Human GlyT1:
Radioligand binding to human GlyT1c transporter-expressing membranes was determined as described in Mezler et al., Molecular Pharmacology 74:1705-1715, 2008.

| SMILES | Ki [nM] |
| --- | --- |
| CCS(=O)(=O)NCc1ccc2c(c1)[C@H](Cc1ccccc1)[C@H](N1CCCC1)CO2 (relative stereo) [Example 63, cis-Ethanesulfonic acid (-4-benzyl-3-pyrrolidin-1-yl-chroman-6-ylmethyl)-amide] | ≤ 100 |
| CS(=O)(=O)NCc1ccc2c(c1)[C@H](Cc1ccccc1)[C@H](N1CCCC1)CO2 (relative stereo) [Example 64, cis-N-(-4-Benzyl-3-pyrrolidin-1-yl-chroman-6-ylmethyl)-methanesulfonamide] | ≤ 1000 |
| O=S(=O)(CC1CC1)NCc1ccc2c(c1)[C@H](Cc1ccccc1)[C@H](N1CCCC1)CO2 (relative stereo) [Example 65, cis-N-(-4-Benzyl-3-pyrrolidin-1-yl-chroman-6-ylmethyl)-C-cyclopropyl-methanesulfonamide] | ≤ 10 |
| Cn1cc(S(=O)(=O)NCc2ccc3c(c2)[C@H](Cc2ccccc2)[C@H](N2CCCC2)CO3)cn1 (relative stereo) [Example 66, cis-1-Methyl-1H-pyrazole-4-sulfonic acid (-4-benzyl-3-pyrrolidin-1-yl-chroman-6-ylmethyl)-amide] | ≤ 10 |
| N[C@@H]1COc2ccc(CNS(=O)(=O)CC3CC3)cc2[C@@H]1Cc1ccccc1 (relative stereo) [Example 67, cis-N-(-3-Amino-4-benzyl-chroman-6-ylmethyl)-C-cyclopropyl-methanesulfonamide] | ≤ 10 |
| N[C@@H]1COc2ccc(CNS(=O)(=O)CC3CC3)cc2[C@H]1Cc1ccccc1 (relative stereo) [Example 68, trans-N-(-3-Amino-4-benzyl-chroman-6-ylmethyl)-C-cyclopropyl-methanesulfonamide] | ≤ 100 |
| N[C@@H]1COc2ccc(CNS(=O)(=O)C3CCC3)cc2[C@@H]1Cc1ccccc1 (relative stereo) [Example 69, cis-Cyclobutanesulfonic acid (-3-amino-4-benzyl-chroman-6-ylmethyl)-amide] | ≤ 100 |
| N[C@@H]1COc2ccc(CNS(=O)(=O)C3CCC3)cc2[C@H]1Cc1ccccc1 (relative stereo) [Example 70, trans-Cyclobutanesulfonic acid (-3-amino-4-benzyl-chroman-6-ylmethyl)-amide] | ≤ 1000 |
| CCCS(=O)(=O)NCc1ccc2c(c1)[C@H](Cc1ccccc1)[C@H](N)CO2 (relative stereo) [Example 71, cis-Propane-1-sulfonic acid (-3-amino-4-benzyl-chroman-6-ylmethyl)-amide] | ≤ 100 |
| CCCS(=O)(=O)NCc1ccc2c(c1)[C@@H](Cc1ccccc1)[C@H](N)CO2 (relative stereo) [Example 72, trans-Propane-1-sulfonic acid (-3-amino-4-benzyl-chroman-6-ylmethyl)-amide] | ≤ 100 |
| CCS(=O)(=O)NCCOc1ccc2c(c1)[C@@H](Cc1ccccc1)[C@H](NC)C(C)(C)O2 (relative stereo) [Example 73, trans-Ethanesulfonic acid [2-(-4-benzyl-2,2-dimethyl-3-methylamino-chroman-6-yloxy)-ethyl]-amide] | ≤ 1000 |
| CCCS(=O)(=O)NCCOc1ccc2c(c1)[C@H](Cc1ccccc1)[C@H](NC)C(C)(C)O2 (relative stereo) [Example 74, cis-Propane-1-sulfonic acid [2-(-4-benzyl-2,2-dimethyl-3-methylamino-chroman-6-yloxy)-ethyl]-amide] | ≤ 1000 |
| CCCS(=O)(=O)NCCOc1ccc2c(c1)[C@@H](Cc1ccccc1)[C@H](NC)C(C)(C)O2 (relative stereo) [Example 75, trans-Propane-1-sulfonic acid (2-(-4-benzyl-2,2-dimethyl-3-methylamino-chroman-6-yloxy)-ethyl]-amide] | ≤ 1000 |
| CN[C@H]1[C@@H](Cc2ccccc2)c2cc(OCCNS(=O)(=O)CC3CC3)ccc2OC1(C)C (relative stereo) [Example 76, cis-N-[2-(-4-Benzyl-2,2-dimethyl-3-methylamino-chroman-6-yloxy)-ethyl]-C-cyclopropyl-methanesulfonamide] | ≤ 1000 |
| CN[C@H]1[C@H](Cc2ccccc2)c2cc(OCCNS(=O)(=O)CC3CC3)ccc2OC1(C)C (relative stereo) [Example 77, trans-N-[2-(-4-Benzyl-2,2-dimethyl-3-methylamino-chroman-6-yloxy)-ethyl]-C-cyclopropyl-methanesulfonamide] | ≤ 1000 |
| CCS(=O)(=O)NCc1ccc2c(c1)C(Cc1ccccc1)C(NC)CO2 (single isomer, unassigned; isomer 2) [Example 79, cis-N-{[4-Benzyl-3-(methyl-amino)-3,4-dihydro-2H-chromen-6-yl]methy}ethane-sulfonamide. (Isomer 2)] | ≤ 100 |

| SMILES | Ki [nM] |
| --- | --- |
| Cn1cnc(S(=O)(=O)NCCOc2ccc3c(c2)C(Cc2ccccc2)C(N2CCC2)CO3)c1 (single isomer, unassigned; isomer 2) [Example 80, cis-1-Methyl-1H-imidazole-4-sulfonic acid [2-(3-azetidin-1-yl-4-benzyl-chroman-6-yloxy)-ethyl]-amide. (Isomer 2)] | ≤ 10 |
| CCS(=O)(=O)NCc1ccc2c(c1)C(Cc1ccccc1)C(N1CCC1)CO2 (stereo not shown) [Example 19, Ethanesulfonic acid (3-azetidin-1-yl-4-benzyl-chroman-6-ylmethyl)-amide; trifluoro-acetic acid salt] | ≤ 1000 |
| CCCS(=O)(=O)NCc1ccc2c(c1)C(Cc1ccccc1)C(N1CCC1)CO2 (stereo not shown) [Example 20, Propane-1-sulfonic acid (3-azetidin-1-yl-4-benzyl-chroman-6-ylmethyl)-amide; trifluoro-acetic acid salt] | ≤ 100 |
| O=S(=O)(CC1CC1)NCc1ccc2c(c1)C(Cc1ccccc1)C(N1CCC1)CO2 (stereo not shown) [Example 21, N-(3-Azetidin-1-yl-4-benzyl-chroman-6-ylmethyl)-C-cyclopropyl-methane-sulfonamide; trifluoro-acetic acid salt] | ≤ 100 |
| CC1CCCN(S(=O)(=O)NCc2ccc3c(c2)C(Cc2ccccc2)C(N)CO3)C1 (stereo not shown) [Example 43, 3-Methyl-piperidine-1-sulfonic acid (3-amino-4-benzyl-chroman-6-ylmethyl)-amide 2,2,2-trifluoroacetate] | ≤ 1000 |
| NC1COc2ccc(CNS(=O)(=O)N3CCOCC3)cc2C1Cc1ccccc1 (stereo not shown) [Example 44, Morpholine-4-sulfonic acid (3-amino-4-benzyl-chroman-6-ylmethyl)-amide 2,2,2-trifluoroacetate] | ≤ 10000 |
| Cc1nn(C)cc1S(=O)(=O)NCc1ccc2c(c1)C(Cc1ccccc1)C(N)CO2 (stereo not shown) [Example 45, 1,3-Dimethyl-1H-pyrazole-4-sulfonic acid (3-amino-4-benzyl-chroman-6-ylmethyl)-amide 2,2,2-trifluoroacetate] | ≤ 10000 |
| Cn1ccc(S(=O)(=O)NCc2ccc3c(c2)C(Cc2ccccc2)C(N)CO3)n1 (stereo not shown) [Example 46, 1-Methyl-1H-pyrazole-3-sulfonic acid (3-amino-4-benzyl-chroman-6-ylmethyl)-amide 2,2,2-trifluoroacetate] | ≤ 1000 |
| CCC(C)S(=O)(=O)NCc1ccc2c(c1)C(Cc1ccccc1)C(N)CO2 (stereo not shown) [Example 47, Butane-2-sulfonic acid (3-amino-4-benzyl-chroman-6-ylmethyl)-amide 2,2,2-trifluoroacetate] | ≤ 100 |
| CC(C)S(=O)(=O)NCc1ccc2c(c1)C(Cc1ccccc1)C(N)CO2 (stereo not shown) [Example 48, Propane-2-sulfonic acid (3-amino-4-benzyl-chroman-6-ylmethyl)-amide 2,2,2-trifluoroacetate] | ≤ 1000 |
| NC1COc2ccc(CNS(=O)(=O)c3ccsc3)cc2C1Cc1ccccc1 (stereo not shown) [Example 49, Thiophene-3-sulfonic acid (3-amino-4-benzyl-chroman-6-ylmethyl)-amide 2,2,2-trifluoroacetate] | ≤ 1000 |
| Cc1cc(S(=O)(=O)NCc2ccc3c(c2)C(Cc2ccccc2)C(N)CO3)c(C)o1 (stereo not shown) [Example 50, 2,5-Dimethyl-furan-3-sulfonic acid (3-amino-4-benzyl-chroman-6-ylmethyl)-amide 2,2,2-trifluoroacetate] | ≤ 100 |
| CC(C)CS(=O)(=O)NCc1ccc2c(c1)C(Cc1ccccc1)C(N)CO2 (stereo not shown) [Example 51, 2-Methyl-propane-1-sulfonic acid (3-amino-4-benzyl-chroman-6-ylmethyl)-amide 2,2,2-trifluoroacetate] | ≤ 10000 |
| Cc1ccc(S(=O)(=O)NCc2ccc3c(c2)C(Cc2ccccc2)C(N)CO3)o1 (stereo not shown) [Example 52, 5-Methyl-furan-2-sulfonic acid (3-amino-4-benzyl-chroman-6-ylmethyl)-amide 2,2,2-trifluoroacetate] | ≤ 1000 |
| Cc1ccc(S(=O)(=O)NCc2ccc3c(c2)C(Cc2ccccc2)C(N)CO3)s1 (stereo not shown) [Example 53, 5-Methyl-thiophene-2-sulfonic acid (3-amino-4-benzyl-chroman-6-ylmethyl)-amide 2,2,2-trifluoroacetate] | ≤ 1000 |
